Type in all cases: biochemical
In one test the target is T1, EGFR (Homo sapiens, UniProt P00533).
T1 construct: purchased Upstate Company
Nature of the test: Inhibition of EGFR (Her1) kinase. The note with it: Table 3. On the procedure:
(§1) Inhibition activities of kinases of the inventive compounds (test compounds) prepared in the Examples were assessed and represented as IC50 values.
(§2) Kinases used in Test Examples 1 to 3 were purchased from Upstate Company.
(§3) 100 mM HEPES (pH 7.4), 25 mM MgCl2, 10 mM MnCl2 and 250 μM Na3VO4 were mixed to prepare a kinase buffer. Each of kinases to be measured was diluted to a concentration of 25˜300 ng per one reaction according to its activity with the kinase buffer. Also, each of the test compounds was serially diluted to a concentration starting from 100 nM up to 0.1 nM with the kinase buffer. 10 μl of the serially diluted solution of each of the test compounds and 10 μl of the diluted kinase were added to each well of a 96-well microplate, and the plate was incubated at room temperature for 10 mins. 10 μl of a substrate and 10 μl of ATP were successively added thereto to initiate a kinase reaction, and the resulting mixture was incubated at room temperature for 1 hour. The ATP was used in a form of a solution diluted to a concentration determined according to a kinase's Km value with distilled water. 10˜100 ng/mL poly(Glu, Tyr) 4:1 (Sigma) was used as the substrate. […] The FP (fluorescence polarization) value of each well was determined with a Victor™ D fluorescence meter (Perkin Elmer Lifesciences). […]

In a further test the target is T2, FGFR1 (Homo sapiens, UniProt P11362).
T2 construct: purchased Upstate Company
Nature of the test: Inhibition of FGFR1 kinase (fluorescence polarization kinase assay). On the procedure: as §1, §2
(§4) 100 mM HEPES (pH 7.4), 25 mM MgCl2, 10 mM MnCl2 and 250 μM Na3VO4 were mixed to prepare a kinase buffer. Each of kinases to be measured was diluted to a concentration of 25˜300 ng per one reaction according to its activity with the kinase buffer. Also, each of the test compounds was serially diluted to a concentration starting from 100 nM up to 0.1 nM with the kinase buffer. 10 μl of the serially diluted solution of each of the test compounds and 10 μl of the diluted kinase were added to each well of a 96-well microplate, and the plate was incubated at room temperature for 10 mins. 10 μl of a substrate and 10 μl of ATP were successively added thereto to initiate a kinase reaction, and the resulting mixture was incubated at room temperature for 1 hour. The ATP was used in a form of a solution diluted to a concentration determined according to a kinase's Km value with distilled water. 10˜100 ng/mL poly(Glu, Tyr) 4:1 (Sigma) was used as the substrate. 10 μl of 6 mM EDTA was added to each well and stirred for 5 mins to terminate the kinase reaction. For a measurement of phosphorylation degree, 50 μl of a solution containing anti-phosphotyrosine antibody and fluorescein-labeled phosphopeptide was added to the reaction mixture, followed by incubating for 30 mins. The FP (fluorescence polarization) value of each well was determined with a Victor™ D fluorescence meter (Perkin Elmer Lifesciences).
(§5) IC50, the concentration at which 50% inhibition occurs, was evaluated based on the difference between the final concentration of the test cells and the initial concentration of the cells incubated in a well not-treated with the test compound which was regarded as 100%. IC50 values of the test compounds on the FGFR kinase were shown in Table 2, and those of the test compound obtained in Example 177 on various kinases, in Table 3.

In the next test the target is T3, Src (Homo sapiens, UniProt P12931).
T3 construct: purchased Upstate Company
As to the kind of experiment: Inhibition of Src kinase (Profluor Src kinase assay kit). To be noted: Table 3. On the procedure:
as §1, §2
(§6) An inhibition activity of Src kinase was determined with an Src kinase assay kit (Profluor™, Promega). Each of kinases to be measured was diluted to a concentration of 25 ng per one reaction with the kinase buffer provided in the kit. Also, each of the test compounds was serially diluted to a concentration starting from 100 μM up to 0.1 nM with 10% DMSO. 5 μl of the serially diluted solution of each of the test compounds and 20 μl of the diluted kinase were added to each well of a 96-well microplate, and the plate was incubated at room temperature for 10 mins. 25 μl of ATP was added thereto, followed by incubating for 1 hour, and a protease solution was added thereto, followed by incubating for 1 hour. 25 μl of a stabilizer solution was added to the resulting solution, followed by incubating in dark for 5 mins. The absorbance of each well was determined with a fluorescence reader (Molecular Devices) (excitation wavelength: 485 nm, emission wavelength: 530 nm). […]

The target in another test is T4, Lck (Homo sapiens, UniProt P06239).
T4 construct: purchased Upstate Company
As to the kind of experiment: Inhibition of Lck kinase (Profluor kit procedure). The note with it: Table 3. On the procedure:
as §1, §2, §6

The next test has as its target T5, Flt3 (Homo sapiens, UniProt P36888).
T5 construct: purchased Upstate Company
T5 sequence (P36888 27-993): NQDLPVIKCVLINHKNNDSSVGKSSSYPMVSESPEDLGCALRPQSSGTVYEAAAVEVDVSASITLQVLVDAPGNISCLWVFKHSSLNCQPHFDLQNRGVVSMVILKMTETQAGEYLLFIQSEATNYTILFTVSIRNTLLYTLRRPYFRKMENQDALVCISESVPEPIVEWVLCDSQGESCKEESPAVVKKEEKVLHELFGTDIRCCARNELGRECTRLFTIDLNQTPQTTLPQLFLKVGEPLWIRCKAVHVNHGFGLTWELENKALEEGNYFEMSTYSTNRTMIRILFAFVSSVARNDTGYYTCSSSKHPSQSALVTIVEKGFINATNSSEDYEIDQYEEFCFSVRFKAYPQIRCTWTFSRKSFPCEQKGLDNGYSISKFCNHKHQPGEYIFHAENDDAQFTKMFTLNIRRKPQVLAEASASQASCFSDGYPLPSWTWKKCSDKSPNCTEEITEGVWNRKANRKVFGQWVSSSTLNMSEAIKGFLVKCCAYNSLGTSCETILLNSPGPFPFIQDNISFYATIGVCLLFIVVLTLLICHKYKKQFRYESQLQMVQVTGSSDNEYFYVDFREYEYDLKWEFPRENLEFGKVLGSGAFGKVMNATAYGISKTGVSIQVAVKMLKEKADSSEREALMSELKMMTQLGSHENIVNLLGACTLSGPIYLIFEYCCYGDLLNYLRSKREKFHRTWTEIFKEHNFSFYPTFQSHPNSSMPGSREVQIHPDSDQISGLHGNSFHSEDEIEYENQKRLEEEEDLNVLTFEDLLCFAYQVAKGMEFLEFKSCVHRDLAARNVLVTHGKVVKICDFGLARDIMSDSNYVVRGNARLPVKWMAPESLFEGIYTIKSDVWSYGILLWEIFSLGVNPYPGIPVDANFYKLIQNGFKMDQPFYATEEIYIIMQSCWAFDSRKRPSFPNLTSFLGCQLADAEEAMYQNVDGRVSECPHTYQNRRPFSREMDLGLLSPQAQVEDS
Nature of the test: Inhibition of Flt3 kinase. The note with it: Table 3. On the procedure:
as §1, §2, §3

In another test the target is T6, Fyn (Homo sapiens, UniProt P06241).
T6 construct: purchased Upstate Company
Nature of the test: Inhibition of Fyn kinase (Profluor kit procedure). The note with it: Table 3. On the procedure:
as §1, §2, §6

Another test deals with T7, Tie2 (Homo sapiens, UniProt Q02763).
T7 construct: purchased Upstate Company
As to the kind of experiment: Inhibition of Tie2 kinase. To be noted: Table 3. The protocol:
as §1, §2, §3

A further test deals with T8, Met (Homo sapiens, UniProt P08581).
T8 construct: purchased Upstate Company
Nature of the test: Inhibition of Met kinase. To be noted: Table 3. The protocol:
as §1, §2, §3

A further test concerns the target T9, PDGFRβ (Homo sapiens, UniProt P09619).
T9 construct: purchased Upstate Company
As to the kind of experiment: Inhibition of PDGFRβ kinase. To be noted: Table 3. The protocol: as §1, §2, §3

A further test addresses T10, KDR (Homo sapiens, UniProt P35968).
T10 construct: purchased Upstate Company
As to the kind of experiment: Inhibition of KDR kinase. The note with it: Table 3. On the procedure:
as §1, §2, §3

Another test concerns the target T11, Lyn (Homo sapiens, UniProt P07948).
T11 construct: purchased Upstate Company
As to the kind of experiment: Inhibition of Lyn kinase (Profluor kit procedure). To be noted: Table 3. The protocol: as §1, §2, §6

Another test addresses T12, Fms (Homo sapiens, UniProt P07333).
T12 construct: purchased Upstate Company
As to the kind of experiment: Inhibition of Fms kinase. To be noted: Table 3. The protocol:
as §1, §2, §3

A further test addresses T13, Kit (Homo sapiens, UniProt P10721).
T13 construct: purchased Upstate Company
As to the kind of experiment: Inhibition of Kit kinase. To be noted: Table 3. The protocol:
as §1, §2, §3

The next test has as its target T14, Flt1 (Homo sapiens, UniProt P17948).
T14 construct: purchased Upstate Company
Nature of the test: Inhibition of Flt1 kinase. To be noted: Table 3. The protocol:
as §1, §2, §3

Another test concerns the target T15, Her2 (Homo sapiens, UniProt P04626).
T15 construct: purchased Upstate Company
As to the kind of experiment: Inhibition of Her2 kinase. The note with it: Table 3. On the procedure: as §1, §2, §3

A further test addresses T16, PDGFRα (Homo sapiens, UniProt P16234).
T16 construct: purchased Upstate Company
Nature of the test: Inhibition of PDGFRα kinase. The note with it: Table 3. The protocol:
as §1, §2, §3

The target of another test is T17, FGFR3 (Homo sapiens, UniProt P22607).
T17 construct: purchased Upstate Company
Nature of the test: Inhibition of FGFR3 kinase (fluorescence polarization kinase assay). On the procedure:
as §1, §2, §4, §5

In a further test the target is T18, Ret (Homo sapiens, UniProt P07949).
T18 construct: purchased Upstate Company
Nature of the test: Inhibition of Ret kinase. To be noted: Table 3. The protocol:
as §1, §2, §3

[1] abbreviates: Table 2, class symbols, read-out: FGFR1 IC50.
Where [2] appears, read: Table 2, class symbols, read-out: FGFR3 IC50.

Like-named read-outs stand apart in the source and are kept apart here. Where only a bound is given, the exact number is not on record here.

Results on 10 compounds are retold here after patent publication US10112954B2, “Bicyclic heteroaryl derivatives having inhibitory activity for protein kinase” (HANMI PHARM. CO., LTD., priority 2010, dated 2018).

T2 sequence (P11362 22-822, species assumed): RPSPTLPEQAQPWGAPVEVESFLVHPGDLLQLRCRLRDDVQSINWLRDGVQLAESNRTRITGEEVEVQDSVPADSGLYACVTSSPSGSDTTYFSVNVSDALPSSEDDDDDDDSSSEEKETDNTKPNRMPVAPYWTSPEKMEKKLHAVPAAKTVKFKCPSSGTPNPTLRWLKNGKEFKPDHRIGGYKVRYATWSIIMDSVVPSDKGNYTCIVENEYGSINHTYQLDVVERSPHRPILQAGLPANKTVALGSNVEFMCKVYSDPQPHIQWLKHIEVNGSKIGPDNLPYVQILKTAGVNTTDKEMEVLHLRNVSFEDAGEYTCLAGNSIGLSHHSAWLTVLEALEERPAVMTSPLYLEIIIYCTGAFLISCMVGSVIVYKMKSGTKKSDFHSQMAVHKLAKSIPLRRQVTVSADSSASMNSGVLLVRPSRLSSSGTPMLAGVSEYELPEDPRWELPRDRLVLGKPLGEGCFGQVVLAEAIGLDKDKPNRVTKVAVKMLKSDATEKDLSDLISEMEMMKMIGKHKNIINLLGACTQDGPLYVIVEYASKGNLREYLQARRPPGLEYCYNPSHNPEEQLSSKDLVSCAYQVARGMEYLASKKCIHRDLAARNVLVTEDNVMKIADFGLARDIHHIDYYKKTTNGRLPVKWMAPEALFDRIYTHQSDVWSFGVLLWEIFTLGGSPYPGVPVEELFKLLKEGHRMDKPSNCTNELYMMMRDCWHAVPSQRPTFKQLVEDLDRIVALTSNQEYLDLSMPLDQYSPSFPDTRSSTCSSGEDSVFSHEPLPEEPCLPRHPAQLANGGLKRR
T17 sequence (P22607 23-806, species assumed): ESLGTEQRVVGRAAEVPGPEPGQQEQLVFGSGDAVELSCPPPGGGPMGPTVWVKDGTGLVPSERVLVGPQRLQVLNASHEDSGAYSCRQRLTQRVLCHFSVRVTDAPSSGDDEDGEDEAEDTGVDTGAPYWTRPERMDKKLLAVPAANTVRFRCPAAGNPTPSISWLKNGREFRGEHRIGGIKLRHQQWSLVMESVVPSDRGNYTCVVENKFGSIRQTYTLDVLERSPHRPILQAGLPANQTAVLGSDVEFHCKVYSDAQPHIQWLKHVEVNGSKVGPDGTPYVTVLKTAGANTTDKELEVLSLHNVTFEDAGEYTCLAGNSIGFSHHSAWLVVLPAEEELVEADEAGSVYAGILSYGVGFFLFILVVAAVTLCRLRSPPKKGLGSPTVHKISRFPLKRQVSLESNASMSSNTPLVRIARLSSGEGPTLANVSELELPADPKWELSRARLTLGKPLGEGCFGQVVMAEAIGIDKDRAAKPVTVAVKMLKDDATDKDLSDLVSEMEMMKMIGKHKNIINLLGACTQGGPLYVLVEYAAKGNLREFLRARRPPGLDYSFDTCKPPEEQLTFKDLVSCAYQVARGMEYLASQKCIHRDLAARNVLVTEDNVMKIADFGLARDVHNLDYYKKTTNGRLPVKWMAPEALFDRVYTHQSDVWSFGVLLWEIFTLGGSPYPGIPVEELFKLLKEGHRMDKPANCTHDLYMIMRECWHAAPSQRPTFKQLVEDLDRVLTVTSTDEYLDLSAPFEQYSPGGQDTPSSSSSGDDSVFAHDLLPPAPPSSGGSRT
T9 sequence (P09619 33-1106, species assumed): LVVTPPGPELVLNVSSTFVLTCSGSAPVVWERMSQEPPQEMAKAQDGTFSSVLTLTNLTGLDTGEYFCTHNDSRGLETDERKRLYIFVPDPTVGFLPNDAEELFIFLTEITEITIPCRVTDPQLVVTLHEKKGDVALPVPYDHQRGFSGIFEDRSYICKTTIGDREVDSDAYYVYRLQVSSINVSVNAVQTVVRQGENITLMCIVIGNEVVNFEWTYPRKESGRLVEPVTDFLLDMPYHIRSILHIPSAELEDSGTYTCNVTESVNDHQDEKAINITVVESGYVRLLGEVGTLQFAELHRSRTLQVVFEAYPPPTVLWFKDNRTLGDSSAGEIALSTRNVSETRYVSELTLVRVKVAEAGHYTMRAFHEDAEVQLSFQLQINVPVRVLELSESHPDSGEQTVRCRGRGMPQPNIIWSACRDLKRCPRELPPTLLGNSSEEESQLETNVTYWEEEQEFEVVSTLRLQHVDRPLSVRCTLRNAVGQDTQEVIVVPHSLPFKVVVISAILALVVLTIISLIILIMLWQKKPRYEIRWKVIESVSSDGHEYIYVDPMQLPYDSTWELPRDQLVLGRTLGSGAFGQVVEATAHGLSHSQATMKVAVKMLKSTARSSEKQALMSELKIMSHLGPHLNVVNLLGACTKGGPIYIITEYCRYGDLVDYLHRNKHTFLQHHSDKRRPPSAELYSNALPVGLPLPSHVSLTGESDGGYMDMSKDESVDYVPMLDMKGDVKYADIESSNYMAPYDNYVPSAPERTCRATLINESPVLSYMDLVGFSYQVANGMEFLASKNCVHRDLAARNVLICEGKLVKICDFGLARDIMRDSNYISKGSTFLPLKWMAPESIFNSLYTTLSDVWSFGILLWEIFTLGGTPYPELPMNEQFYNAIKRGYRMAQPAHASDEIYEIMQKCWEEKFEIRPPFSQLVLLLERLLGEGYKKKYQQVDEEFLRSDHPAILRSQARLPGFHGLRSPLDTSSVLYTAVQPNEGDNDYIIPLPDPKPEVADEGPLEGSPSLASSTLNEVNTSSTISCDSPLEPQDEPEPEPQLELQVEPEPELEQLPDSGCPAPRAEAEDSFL
T15 sequence (P04626 23-1255, species assumed): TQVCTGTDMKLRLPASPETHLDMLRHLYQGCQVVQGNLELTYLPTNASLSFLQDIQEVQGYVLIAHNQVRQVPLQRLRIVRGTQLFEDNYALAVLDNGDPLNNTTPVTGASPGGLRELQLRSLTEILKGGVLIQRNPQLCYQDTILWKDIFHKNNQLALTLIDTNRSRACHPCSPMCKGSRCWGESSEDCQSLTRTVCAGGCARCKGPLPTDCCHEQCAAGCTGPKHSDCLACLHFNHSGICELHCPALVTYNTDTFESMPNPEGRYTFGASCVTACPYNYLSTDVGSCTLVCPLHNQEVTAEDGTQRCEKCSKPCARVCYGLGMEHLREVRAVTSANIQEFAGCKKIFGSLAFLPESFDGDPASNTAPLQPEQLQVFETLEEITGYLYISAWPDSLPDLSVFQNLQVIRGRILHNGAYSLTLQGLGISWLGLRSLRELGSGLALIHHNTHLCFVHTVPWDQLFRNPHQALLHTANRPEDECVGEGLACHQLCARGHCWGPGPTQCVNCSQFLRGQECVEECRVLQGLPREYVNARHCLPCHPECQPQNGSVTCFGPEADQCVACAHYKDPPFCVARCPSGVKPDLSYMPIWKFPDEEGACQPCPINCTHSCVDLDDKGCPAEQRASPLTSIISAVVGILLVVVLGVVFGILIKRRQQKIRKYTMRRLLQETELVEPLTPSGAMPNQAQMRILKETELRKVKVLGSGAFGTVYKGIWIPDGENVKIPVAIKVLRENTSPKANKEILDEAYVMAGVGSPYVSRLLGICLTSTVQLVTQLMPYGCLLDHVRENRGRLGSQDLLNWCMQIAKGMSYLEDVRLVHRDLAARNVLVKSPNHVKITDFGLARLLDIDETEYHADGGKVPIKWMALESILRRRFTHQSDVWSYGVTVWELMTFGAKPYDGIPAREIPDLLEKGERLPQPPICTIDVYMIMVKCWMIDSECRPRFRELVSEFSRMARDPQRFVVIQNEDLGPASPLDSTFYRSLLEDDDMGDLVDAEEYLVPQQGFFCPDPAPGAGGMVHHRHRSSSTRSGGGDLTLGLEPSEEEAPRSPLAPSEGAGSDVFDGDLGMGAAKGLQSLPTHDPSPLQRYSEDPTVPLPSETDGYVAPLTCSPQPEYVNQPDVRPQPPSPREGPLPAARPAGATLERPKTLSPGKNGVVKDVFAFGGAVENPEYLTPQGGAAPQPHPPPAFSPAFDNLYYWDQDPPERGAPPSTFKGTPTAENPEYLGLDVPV
T7 sequence (Q02763 23-1124, species assumed): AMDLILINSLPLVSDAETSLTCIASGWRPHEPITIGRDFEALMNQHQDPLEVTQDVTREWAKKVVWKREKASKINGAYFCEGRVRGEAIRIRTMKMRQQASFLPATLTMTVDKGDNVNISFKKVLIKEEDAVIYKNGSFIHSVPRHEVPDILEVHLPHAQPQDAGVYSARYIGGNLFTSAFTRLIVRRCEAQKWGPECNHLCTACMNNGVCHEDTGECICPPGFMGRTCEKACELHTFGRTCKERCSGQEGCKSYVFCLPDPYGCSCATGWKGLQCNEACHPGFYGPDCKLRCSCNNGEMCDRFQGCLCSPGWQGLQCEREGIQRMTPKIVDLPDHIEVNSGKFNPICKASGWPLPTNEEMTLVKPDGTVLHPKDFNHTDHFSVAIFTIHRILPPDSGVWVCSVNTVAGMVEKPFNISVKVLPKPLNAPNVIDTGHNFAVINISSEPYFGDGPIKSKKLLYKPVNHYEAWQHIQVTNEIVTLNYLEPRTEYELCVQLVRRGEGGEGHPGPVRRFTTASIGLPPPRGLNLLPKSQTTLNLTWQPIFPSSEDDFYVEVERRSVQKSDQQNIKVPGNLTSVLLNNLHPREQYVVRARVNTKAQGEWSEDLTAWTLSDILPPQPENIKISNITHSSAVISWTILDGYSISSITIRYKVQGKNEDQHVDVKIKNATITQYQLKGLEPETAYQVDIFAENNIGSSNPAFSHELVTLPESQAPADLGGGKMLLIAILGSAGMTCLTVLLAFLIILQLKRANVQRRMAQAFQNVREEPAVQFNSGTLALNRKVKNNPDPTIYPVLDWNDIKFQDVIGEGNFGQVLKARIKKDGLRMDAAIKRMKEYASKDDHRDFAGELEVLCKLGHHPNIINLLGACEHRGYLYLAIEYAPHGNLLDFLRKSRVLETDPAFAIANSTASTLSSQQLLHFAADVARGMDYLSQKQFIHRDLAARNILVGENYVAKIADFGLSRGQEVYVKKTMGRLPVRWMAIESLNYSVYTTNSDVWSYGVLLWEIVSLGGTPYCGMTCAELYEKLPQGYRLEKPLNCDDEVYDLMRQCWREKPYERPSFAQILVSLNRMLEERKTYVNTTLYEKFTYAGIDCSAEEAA

As to `COc1cc(OC)c(Cl)c(NC(=O)c2csc3c(NC(=O)C4CC4)ncnc23)c1Cl` [Example 177, 4-(cyclopropanecarbox-amido)-N-(2,6-dichloro-3,5-dimethoxyphenyl) thieno[3,2-d]pyrimidine-7-carboxamide], the IC50 on EGFR was more than 1000 nM; at FGFR1 (Table 3, read-out: IC50 (nM) FGFR1) it was less than 100 nM; on Src, more than 1000 nM; against Lck, more than 1000 nM; against Flt3 it was more than 1000 nM; against Fyn it was more than 1000 nM. Besides, the 50% inhibitory concentration (IC50) on Tie2 was more than 1000 nM; against Met, more than 1000 nM; at PDGFRβ, more than 1000 nM; against KDR it was less than 200 nM; at Lyn, more than 1000 nM; against Fms it was less than 200 nM. The half-maximal inhibitory concentration (IC50) is more than 1000 nM against Kit; more than 1000 nM against Flt1; more than 1000 nM against Her2; more than 1000 nM at PDGFRα; less than 100 nM on FGFR3 (Table 3, read-out: IC50 (nM) FGFR3); more than 1000 nM at Ret.
Consider `COc1cc(OC)c(Cl)c(NC(=O)c2csc3c(Nc4ccc(N5CCC(N6CCCC6)CC5)cc4)ncnc23)c1Cl` [Example 202, N-(2,6-dichloro-3,5-dimethoxyphenyl)-4-(4-(4-(pyrrolidin-1-yl)piperidin-1-yl)phenylamino) thieno[3,2-d]pyrimidine-7-carboxamide], for which the half-inhibitory concentration (IC50) on FGFR1 (setting [1]) lay in the range of 100 to 500 nM; at FGFR3 (setting [2]), 1 to 100 nM.
In the same order, the values of `CCOC(=O)NC(=S)Nc1ncnc2c(C(=O)Nc3c(Cl)c(OC)cc(OC)c3Cl)csc12` [Example 216, N-(2,6-dichloro-3,5-dimethoxyphenyl)-4-(3-(ethoxycarbonyl)thioureido)thieno[3,2-d]pyrimidine-7-carboxamide] are 100 to 500 nM and 500 to 1000 nM.
In the same order, the values of `CCOC(=O)CNc1ncnc2c(C(=O)Nc3c(Cl)c(OC)cc(OC)c3Cl)csc12` [Example 302, ethyl 2-(7-(2,6-dichloro-3,5-dimethoxyphenyl-carbamoyl)thieno[3,2-d]pyrimidin-4-ylamino)acetate] are 1000 to 5000 nM and 1000 to 5000 nM.
In the same order, the values of `COc1cc(OC)c(Cl)c(NC(=O)c2csc3c(Nc4ccc5cn[nH]c5c4)ncnc23)c1Cl` [Example 229, 4-(1H-indazol-6-ylamino)-N-(2,6-dichloro-3,5-dimethoxyphenyl) thieno[3,2-d]pyrimidine-7-carboxamide] are 1 to 100 nM and 500 to 1000 nM.
In the case of `COc1cc(O)c(Cl)c(NC(=O)c2csc3c(N)ncnc23)c1Cl` [Example 217, 4-Amino-N-(2,6-dichloro-3-hydroxy-5-methoxyphenyl)thieno[3,2-d]pyrimidine-7-carboxamide], the IC50 at FGFR1 (setting [1]) was 1 to 100 nM; on FGFR3 (setting [2]), 100 to 500 nM.
Consider `COc1cc(OC)c(Cl)c(NC(=O)c2csc3c(Nc4ccc(NC(=O)CN(C)C)cn4)ncnc23)c1Cl` [Example 299, N-(2,6-dichloro-3,5-dimethoxyphenyl)-4-(5-(2-(dimethylamino)acetamido)pyridin-2-ylamino)thieno[3,2-d]pyrimidine-7-carboxamide], for which the IC50 at FGFR1 (setting [1]) and at FGFR3 (setting [2]) was 1 to 100 nM in each case.
Take `CCN(CC)CCOc1ccc(Nc2ncnc3c(C(=O)Nc4c(Cl)c(OC)cc(OC)c4Cl)csc23)cc1` [Example 196, N-(2,6-dichloro-3,5-dimethoxyphenyl)-4-(4-(2-(diethylamino)ethoxy)phenylamino) thieno[3,2-d]pyrimidine-7-carboxamide]: the concentration for half-maximal inhibition (IC50) at FGFR1 (setting [1]) was 100 to 500 nM; on FGFR3 (setting [2]), 500 to 1000 nM.
As for `COc1cc(OC)c(Cl)c(NC(=O)c2csc3c(Nc4nc5ccc(C)cc5s4)ncnc23)c1Cl` [Example 225, N-(2,6-dichloro-3,5-dimethoxyphenyl)-4-(6-methylbenzo[d]thiazol-2-ylamino)thieno[3,2-d]pyrimidine-7-carboxamide], the IC50 at FGFR1 (setting [1]) and on FGFR3 (setting [2]) was 500 to 1000 nM in each case.
Regarding `CCN1CCN(c2cccc(Nc3ncnc4c(C(=O)Nc5c(Cl)c(OC)cc(OC)c5Cl)csc34)c2)CC1` [Example 201, N-(2,6-dichloro-3,5-dimethoxyphenyl)-4-(3-(4-ethylpiperazin-1-yl)phenylamino) thieno[3,2-d]pyrimidine-7-carboxamide], the half-maximal inhibitory concentration (IC50) at FGFR1 (setting [1]) and at FGFR3 (setting [2]) was 100 to 500 nM throughout.
